In publication PMC8187479, “Sugar phosphate activation of the stress sensor eIF2B” (Nature Communications, 2021):
Positions count from the first letter of the chain named.

Tests used:
eIF2B = target: T1, eIF2B (Homo sapiens, UniProt P49770+Q14232+Q9UI10); test: eIF2B GEF activity assay, targeted, recombinant wild-type eIF2B; format: biochemical; conditions: dose-response with eIF2B; 95% CI 2.2-5.3 μM; read-out: EC50 of GEF activation (GDP release t1/2)
T1 construct: made in house; host or cells: eIF2Bα: E. coli BL21(DE3)
Experimental: (§1) Bodipy-FL-GDP-loaded eIF2 was used as a substrate for recombinant eIF2B. The assay was performed in 384-well plates. Reactions were read on a SpectraMax i3x plate reader (Molecular Devices) using the instrument’s Softmax Pro software with the following parameters: plate temperature = 25 °C; excitation wavelength = 485 nm (15 nm width); emission wavelength = 535 nm (25 nm width); read duration = 30 min at 45 s intervals. Data were analyzed in Prism. GDP release half-lives were calculated by fitting single-exponential decay curves.
(§2) For unbiased screening, MIDAS metabolite libraries at 10 mM stock concentration were dispensed into wells of the assay plate using an Echo Acoustic Liquid Handler (Labcyte). In a final assay volume of 10 μL/well, the following conditions were kept constant: 25 nM Bodipy-FL-GDP-loaded eIF2, 4 nM phospho-eIF2, 0.1 mM GDP, 1 mg/mL BSA, 1 nM eIF2B, 10 μM metabolite. A single well was run for each metabolite. For targeted experiments with recombinant wild-type and mutant eIF2Bα, the following conditions were used: 50 nM Bodipy-FL-GDP-loaded eIF2, 0.1 mM GDP, 1 mg/ml BSA, 20 nM eIF2B. For targeted experiments with HEK293T lysates, the following conditions were used: 50 nM Bodipy-FL-GDP-loaded eIF2, 0.1 mM GDP, 1 mg/ml BSA, 0.1 or 0.3 mg/ml lysates.

[1] = target: T2, eIF2B decamer in eIF2Bα^V183F HEK293T lysate (Homo sapiens, UniProt P49770+Q14232+Q9UI10, V183F); test: Sucrose gradient centrifugation, eIF2B complex assembly, eIF2Bα V183F HEK293T lysate; format: biochemical; conditions: 500 nM ISRIB, 200 μM F6P
T2 construct: endogenous in cells
Experimental: WT or eIF2Bα mutant HEK293T cells were harvested and lysed in 50 mM HEPES, 400 mM KCl, 1 mM DTT, 4 mM Mg(OAc)2, pH 7.5 + 0.5% Triton-X-100 + EDTA-free protease inhibitor cocktail (Roche) on ice for 30 min. Lysates were cleared by centrifugation at 48,000 × g, 4 °C for 30 min. 100 μL of each cleared lysate was loaded onto a 5–20% sucrose gradient prepared in a 13 × 51 mm ultracentrifuge tube using a Gradient Station (Biocomp) and centrifuged in a SW55 Ti rotor at 152,000 × g, 4 °C for 12 h. After centrifugation, 24 × 200 μL fractions were manually collected from the top to bottom of each gradient. Each fraction was subjected to methanol/chloroform precipitation and SDS-PAGE followed by Western Blot with the indicated antibodies. Blots were imaged on a ChemiDoc MP (Bio-Rad), and band intensities were quantified using the instrument’s Image Lab software. Each value was then divided by total intensity obtained across all fractions to determine percent enrichment of each subunit in each fraction.

[2] = target: T3, recombinant eIF2B(βδγε) ± eIF2Bα2 (Homo sapiens, UniProt P49770+Q9UI10); test: Size-exclusion chromatography of recombinant eIF2B(βδγε) with or without eIF2Bα; format: biochemical; conditions: SEC, recombinant eIF2B(βδγε); 500 nM ISRIB, 200 μM F6P
T3 construct: made in house; host or cells: eIF2Bα: E. coli BL21(DE3)
Experimental: (§3) Purified proteins were thawed and centrifuged at 20,000 × g, 10 min, 4 °C to remove any potential precipitate. Concentrations of eIF2B(βδγε) and eIF2Bα were normalized to 2 μM and 2.4 μM, respectively. 0.2 mL of each mixture was injected onto a Superose 6 Increase 10/300 column connected to an AKTA Pure 25 FPLC system (GE Healthcare). The system was run at 0.5 mL/min for 1 h using 25 mM HEPES, 200 mM KCl, 2 mM MgCl2, 1 mM DTT, pH 7.5 as the mobile phase. For conditions with ISRIB, the protein samples and mobile phase were supplemented with 500 nM ISRIB. For conditions with F6P, the protein samples and mobile phase were supplemented with 200 μM F6P. UV280 measurements were obtained directly by the instrument.

[3] = target: T4, recombinant eIF2B(βδγε) ± eIF2Bα2 (Homo sapiens, UniProt P49770+Q14232+Q9UI10); test: as above; format: biochemical; conditions: SEC, recombinant eIF2B(βδγε) + eIF2Bα2; 500 nM ISRIB, 200 μM F6P
T4 construct: made in house; host or cells: eIF2Bα: E. coli BL21(DE3)
Experimental: as §3

[4] = target: T5, eIF2B in eIF2Bα^E198K HEK293T lysate (Homo sapiens, UniProt P49770+Q14232+Q9UI10, E198K); test: GEF activity assay with eIF2Bα E198K HEK293T lysate; format: biochemical
T5 construct: endogenous in cells; host or cells: HEK293T, CRISPR knock-in eIF2Bα E198K (homozygous), lysate
Experimental: as §1, §2

eIF2Bα^E198K = target: T6, eIF2Bα^E198K (Homo sapiens, UniProt Q14232, E198K); test: Isothermal titration calorimetry, eIF2Bα E198K; format: binding; conditions: ITC
T6 sequence (Q14232 1-305 E198K): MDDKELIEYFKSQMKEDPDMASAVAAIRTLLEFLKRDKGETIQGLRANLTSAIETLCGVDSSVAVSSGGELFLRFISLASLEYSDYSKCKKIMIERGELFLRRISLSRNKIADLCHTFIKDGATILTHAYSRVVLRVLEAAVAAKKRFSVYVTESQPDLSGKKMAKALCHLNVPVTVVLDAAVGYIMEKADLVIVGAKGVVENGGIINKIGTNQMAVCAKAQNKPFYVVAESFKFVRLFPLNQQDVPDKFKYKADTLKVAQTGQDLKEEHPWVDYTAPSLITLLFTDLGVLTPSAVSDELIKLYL
Experimental: Interactions between recombinant protein and sugar phosphates were conducted with a MicroCal PEAQ-ITC (Malvern Panalytical Inc.). Experiments were performed in 25 mM HEPES, 150 mM NaCl, pH 7.5 at 20 °C. […] The final titration curves were fitted using MicroCal ITC data analysis software, assuming a single binding site per monomer.

eIF2Bα^V183F = target: T7, eIF2Bα^V183F (Homo sapiens, UniProt Q14232, V183F); test: Size-exclusion chromatography of recombinant eIF2Bα V183F, alone or with eIF2B(βδγε); format: biochemical; conditions: SEC, eIF2Bα V183F alone
T7 construct: made in house; host or cells: E. coli BL21(DE3)
T7 sequence (Q14232 1-305 V183F): T6 sequence (Q14232 1-305 E198K) with V183F, K198E
Experimental: as §3

T2 sequence (Q14232 whole entry V183F): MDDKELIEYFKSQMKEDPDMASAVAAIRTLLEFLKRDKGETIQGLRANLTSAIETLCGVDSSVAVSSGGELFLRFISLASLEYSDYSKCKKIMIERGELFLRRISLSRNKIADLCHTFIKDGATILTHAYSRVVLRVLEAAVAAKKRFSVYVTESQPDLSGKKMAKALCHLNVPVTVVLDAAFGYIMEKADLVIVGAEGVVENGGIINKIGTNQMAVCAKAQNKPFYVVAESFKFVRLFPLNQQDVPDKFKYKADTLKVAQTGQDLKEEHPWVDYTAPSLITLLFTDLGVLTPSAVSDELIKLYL
T2 sequence (P49770 whole entry): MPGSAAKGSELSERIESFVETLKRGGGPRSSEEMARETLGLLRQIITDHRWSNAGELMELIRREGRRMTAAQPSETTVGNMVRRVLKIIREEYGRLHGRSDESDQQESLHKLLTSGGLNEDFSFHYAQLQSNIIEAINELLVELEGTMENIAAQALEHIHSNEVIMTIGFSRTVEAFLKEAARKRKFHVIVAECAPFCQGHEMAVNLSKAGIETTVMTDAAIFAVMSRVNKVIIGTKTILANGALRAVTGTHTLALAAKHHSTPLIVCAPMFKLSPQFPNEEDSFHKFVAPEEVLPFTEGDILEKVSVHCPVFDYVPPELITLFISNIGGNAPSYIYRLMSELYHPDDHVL
T2 sequence (Q9UI10 whole entry): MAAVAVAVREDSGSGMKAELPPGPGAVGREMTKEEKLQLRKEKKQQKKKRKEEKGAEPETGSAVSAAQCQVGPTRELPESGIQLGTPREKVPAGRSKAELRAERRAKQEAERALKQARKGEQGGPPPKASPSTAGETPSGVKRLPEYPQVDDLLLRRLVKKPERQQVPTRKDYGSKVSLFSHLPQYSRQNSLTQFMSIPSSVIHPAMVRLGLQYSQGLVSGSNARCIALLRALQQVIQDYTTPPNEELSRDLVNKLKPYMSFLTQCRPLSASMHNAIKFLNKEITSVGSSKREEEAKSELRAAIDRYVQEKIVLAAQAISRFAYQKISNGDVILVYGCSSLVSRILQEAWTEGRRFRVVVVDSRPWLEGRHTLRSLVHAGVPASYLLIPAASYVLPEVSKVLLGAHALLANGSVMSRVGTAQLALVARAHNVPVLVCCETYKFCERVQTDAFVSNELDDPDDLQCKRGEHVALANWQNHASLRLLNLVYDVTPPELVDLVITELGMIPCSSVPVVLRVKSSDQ
T2 sequence (Q9NR50 whole entry partner): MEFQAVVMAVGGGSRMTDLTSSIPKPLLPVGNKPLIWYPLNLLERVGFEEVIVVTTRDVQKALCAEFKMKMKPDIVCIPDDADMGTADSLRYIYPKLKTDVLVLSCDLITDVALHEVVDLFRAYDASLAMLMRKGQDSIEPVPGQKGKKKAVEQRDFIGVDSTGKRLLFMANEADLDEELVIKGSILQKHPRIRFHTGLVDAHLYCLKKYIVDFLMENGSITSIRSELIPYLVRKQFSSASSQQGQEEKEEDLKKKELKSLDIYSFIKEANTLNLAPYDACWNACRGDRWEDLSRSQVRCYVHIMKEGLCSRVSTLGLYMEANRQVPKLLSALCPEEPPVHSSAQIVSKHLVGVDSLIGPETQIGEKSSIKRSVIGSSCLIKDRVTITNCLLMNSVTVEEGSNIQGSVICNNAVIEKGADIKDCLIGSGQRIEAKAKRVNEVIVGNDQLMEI
T2 sequence (Q13144 whole entry partner): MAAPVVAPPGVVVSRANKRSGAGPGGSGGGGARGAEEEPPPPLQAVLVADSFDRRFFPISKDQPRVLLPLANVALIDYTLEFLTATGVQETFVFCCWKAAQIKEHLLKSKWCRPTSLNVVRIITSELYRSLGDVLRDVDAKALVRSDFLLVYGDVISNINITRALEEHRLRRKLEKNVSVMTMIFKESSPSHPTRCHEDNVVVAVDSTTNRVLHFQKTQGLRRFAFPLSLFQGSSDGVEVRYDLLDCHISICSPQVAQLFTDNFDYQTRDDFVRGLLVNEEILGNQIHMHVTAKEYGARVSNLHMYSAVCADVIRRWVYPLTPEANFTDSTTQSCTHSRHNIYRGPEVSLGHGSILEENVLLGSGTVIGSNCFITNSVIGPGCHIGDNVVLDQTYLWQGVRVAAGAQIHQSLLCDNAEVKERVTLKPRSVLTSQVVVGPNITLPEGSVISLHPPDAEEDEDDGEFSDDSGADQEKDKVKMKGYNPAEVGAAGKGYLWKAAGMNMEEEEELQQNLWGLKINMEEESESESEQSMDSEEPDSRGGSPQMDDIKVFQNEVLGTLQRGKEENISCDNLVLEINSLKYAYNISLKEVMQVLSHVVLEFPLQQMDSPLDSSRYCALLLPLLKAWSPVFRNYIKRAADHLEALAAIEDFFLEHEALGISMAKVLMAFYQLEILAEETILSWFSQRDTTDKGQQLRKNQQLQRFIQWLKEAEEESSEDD
T1 sequence (Q14232 whole entry): as the sequence (Q14232 whole entry V183F) above, with F183V counted along it
T1 sequence (P49770 whole entry): as the sequence (P49770 whole entry) above
T1 sequence (Q9UI10 whole entry): as the sequence (Q9UI10 whole entry) above
T1 sequence (Q9NR50 whole entry partner): as the sequence (Q9NR50 whole entry partner) above
T1 sequence (Q13144 whole entry partner): as the sequence (Q13144 whole entry partner) above
T4 sequence (Q14232 whole entry): as the sequence (Q14232 whole entry V183F) above, with F183V counted along it
T4 sequence (P49770 whole entry): as the sequence (P49770 whole entry) above
T4 sequence (Q9UI10 2-523): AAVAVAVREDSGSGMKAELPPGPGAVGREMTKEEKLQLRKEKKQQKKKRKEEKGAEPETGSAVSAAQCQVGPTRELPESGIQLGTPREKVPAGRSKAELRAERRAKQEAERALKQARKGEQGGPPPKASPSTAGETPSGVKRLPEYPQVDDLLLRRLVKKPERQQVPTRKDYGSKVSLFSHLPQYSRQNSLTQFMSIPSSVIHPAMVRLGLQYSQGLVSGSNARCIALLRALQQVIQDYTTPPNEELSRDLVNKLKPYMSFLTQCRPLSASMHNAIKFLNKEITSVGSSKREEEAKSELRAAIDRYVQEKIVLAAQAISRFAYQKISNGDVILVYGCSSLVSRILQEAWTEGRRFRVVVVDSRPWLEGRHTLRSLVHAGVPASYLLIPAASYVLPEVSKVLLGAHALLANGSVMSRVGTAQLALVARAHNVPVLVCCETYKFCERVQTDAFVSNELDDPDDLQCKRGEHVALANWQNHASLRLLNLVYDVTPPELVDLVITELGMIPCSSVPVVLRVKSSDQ
T4 sequence (Q9NR50 whole entry partner): as the sequence (Q9NR50 whole entry partner) above
T4 sequence (Q13144 whole entry partner): as the sequence (Q13144 whole entry partner) above
T5 sequence (P49770 whole entry, one chain of several): as the sequence (P49770 whole entry) above
T5 sequence (Q9UI10 whole entry, one chain of several): as the sequence (Q9UI10 whole entry) above
T5 sequence (Q9NR50 whole entry partner, one chain of several): as the sequence (Q9NR50 whole entry partner) above
T5 sequence (Q13144 whole entry partner, one chain of several): as the sequence (Q13144 whole entry partner) above
T3 sequence (P49770 whole entry): as the sequence (P49770 whole entry) above
T3 sequence (Q9UI10 2-523): as the sequence (Q9UI10 2-523) above
T3 sequence (Q9NR50 whole entry partner): as the sequence (Q9NR50 whole entry partner) above
T3 sequence (Q13144 whole entry partner): as the sequence (Q13144 whole entry partner) above

SMILES: O=C(CO)[C@@H](O)[C@H](O)[C@H](O)COP(=O)(O)O [F6P, fructose-6-phosphate]
- EC50 (eIF2B): 3.4 µM
- eIF2B decamer formation [1]: promoted decamer formation at comparable levels
- complex formation in the absence of eIF2Bα [2]: ineffective at promoting complex formation
- complex formation in the presence of eIF2Bα [3]: enhances eIF2B complex stability
- effect on GEF activity of eIF2Bα E198K lysate [4]: does not respond
- Kd (eIF2Bα^E198K; eIF2Bα E198K): 99 ± 12 µM
- reduction of affinity of eIF2Bα E198K (eIF2Bα^E198K; compared with wild-type eIF2Bα): 11 fold
- monomer-to-dimer shift of eIF2Bα V183F (eIF2Bα^V183F): induced a partial shift from the monomer to the dimer peak
